Measurements: patent US6417187B2, “1,2,4-triazole based compounds that can be used as insecticides or acaricides and processes” (Dow AgroSciences LLC, priority 2000, dated 2002)
Like-named read-outs stand apart in the source and are kept apart here.

Key:
Format in all cases: in vivo
[1] = test system: tobacco budworm (Heliothis virescens); experiment: Insecticidal test for tobacco budworm (cotton cotyledon leaf-disc dip); settings: 400 ppm, cotton cotyledon leaf-dip, 2nd instar larvae, 5 days; for pest or weed control at 400 ppm: Heliothis virescens, 120 h, read-out: TBW: activity at 400 ppm against tobacco budworm (% Control rating)
[2] = test system: beet armyworm (Spodoptera exigua); experiment: Insecticidal test for beet armyworm (treated lepidopteran diet); settings: 400 ppm, treated diet, second-instar larvae, 5 days; for pest or weed control at 400 ppm: Spodoptera exigua, 120 h, read-out: BAW: activity at 400 ppm against beet armyworm (% Control rating)
[3] = test system: cabbage looper (Trichoplusia ni); experiment: Insecticidal test for cabbage looper (cabbage leaf-disc dip); settings: 400 ppm, cabbage leaf-dip, 2nd instar larvae, 5 days; for pest or weed control at 400 ppm: Trichoplusia ni, 120 h, read-out: CL: activity at 400 ppm against cabbage looper (% Control rating)
[4] = test system: cotton aphid (Aphis gossvpii); experiment: Insecticidal test for cotton aphid (squash cotyledon spray); settings: 50 ppm spray on infested squash cotyledons, 3 days, population reduction versus untreated; for pest or weed control at 50 ppm: 72 h, read-out: CA: activity at 50 ppm against cotton aphid (% Control rating)
[5] = test system: two-spotted spider mite (Tetranychus urticae); experiment: Insecticidal test for two-spotted spider mite, ovicide method; settings: for pest or weed control at 2.5 ppm: Tetranychus urticae, foliar, 144 h, read-out: SM: activity at 2.5 ppm against two-spotted spider mite (% Control rating)
[6] = test system: Sweetpotato Whitefly (Bemisia tabacia); experiment: Insecticidal test for Sweetpotato Whitefly (cotton plant spray); settings: 200 ppm spray on cotton plants, 13 days, reduction of large nymphs; for pest or weed control at 200 ppm: Bemisia, 312 h, read-out: WF: activity at 200 ppm against whitefly (% Control rating)
[7] = test system: Brown Planthopper (Nilaparvata lugens); experiment: Insecticidal test for Brown Planthopper (rice seedling roots in test solution); settings: 10 ppm test solution, rice seedling roots, 3rd instar nymphs, mortality at 6 days
[8] = test system: Green Leafhopper (Nephotettix cincticeps); experiment: Insecticidal test for Green Leafhopper (rice seedling roots in test solution); settings: 10 ppm test solution, rice seedling roots, 3rd instar nymphs, mortality at 6 days
[9] = 2.5 ppm (table footnote), ovicide method on cotton leaf discs, 6 days

Structure (SMILES)	pest or weed control at 400 ppm [1] [%]	pest or weed control at 400 ppm [2] [%]	pest or weed control at 400 ppm [3] [%]	pest or weed control at 50 ppm [4] [%]	pest or weed control at 2.5 ppm ([5]; in Gossypium hirsutum) [%]	pest or weed control at 200 ppm [6] [%]	BPH: activity at 10 ppm against brown planthopper (% Control rating) [7]	GLH: activity at 10 ppm against green leafbopper (% Control rating) [8]	pest or weed control at 2.5 ppm [5, 9] [%]	TBW: activity at 400 ppm against tobacco budworm (% Control rating) [1]	BAW: activity at 400 ppm against beet armyworm (% Control rating) [2]	CL: activity at 400 ppm against cabbage looper (% Control rating) [3]	SM: activity at 2.5 ppm against two-spotted spider mite (% Control rating) [5, 9]	WF: activity at 200 ppm against whitefly (% Control rating) [6]	CA: activity at 50 ppm against cotton aphid (% Control rating) [4]
Cn1nc(-c2c(F)cccc2Cl)nc1-c1sc(C#C[Si](C)(C)C)c(Cl)c1Cl [Compound 1, 1-Methyl-3-(2-chloro-6-fluorophenyl)-5-(3,4-dichloro-5-(2-trimethylsilyl-ethynyl)-thien-2-yl) [1 2,4]triazole]	90 to 100	90 to 100	90 to 100	50 to 59	80 to 89	< 50	F (less than 50)	B (80-89)							
Cn1nc(-c2c(F)cccc2Cl)nc1-c1sc(C#CC(C)(C)C)c(Cl)c1Cl [Compound 3]	60 to 69		90 to 100	90 to 100		< 50			80 to 89						
Cn1nc(-c2c(F)cccc2Cl)nc1-c1sc(C#Cc2ccccc2)c(Cl)c1Cl [Compound 4]	< 50	90 to 100	90 to 100	80 to 89		< 50	E (50-59)		60 to 69						
Cn1nc(-c2c(F)cccc2Cl)nc1-c1sc(C#Cc2cccc(F)c2F)c(Cl)c1Cl [Compound 27]							E (50-59)	F (less than 50)		D (60-69)	A (90-100)	A (90-100)	F (less than 50)	D (60-69)	
CCN(CC)c1ncc(C#Cc2sc(-c3nc(-c4c(F)cccc4Cl)nn3C)c(Cl)c2Cl)cn1 [Compound 41]	60 to 69	90 to 100	80 to 89	< 50		< 50	E (50-59)		< 50						
Cc1c(C#Cc2ccccc2)csc1-c1nc(-c2c(F)cccc2Cl)nn1C [Compound 67]										B (80-89)	A (90-100)		B (80-89)	F (less than 50)	A (90-100)
Cn1nc(-c2c(F)cccc2Cl)nc1-c1ccc(C#Cc2ccc(F)cc2)c(Cl)c1Cl [Compound 92]							F (less than 50)	F (less than 50)			A (90-100)	A (90-100)	F (less than 50)	F (less than 50)	A (90-100)
Cn1nc(-c2c(F)cccc2Cl)nc1-c1ccc(C#C[Si](C)(C)C)c(Cl)c1Cl [Compound 96]										F (less than 50)	A (90-100)	A (90-100)	D (60-69)	F (less than 50)	D (60-69)
